From PubChem BioAssay (NCI)
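Cells were grown in 96-well plates and exposed to each compound for 48 hours at five concentrations; endpoints were interpolated linearly between bracketing concentrations, or set to the highest concentration if not reached. GI50 = concentration required for 50% inhibition of growth. At the TGI there is no net growth.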

How the values were obtained:
Assay in all cases: NCI anticancer screen, dose series, 48 h
[1] = system: MALME-3M melanoma
[2] = system: DU-145 prostate
[3] = system: SW-620 colon
[4] = system: UACC-62 melanoma
[5] = system: NCI-H226 lung
[6] = system: MDA-MB-435
[7] = system: PC-3 prostate
[8] = system: SK-MEL-28 melanoma
[9] = system: UO-31 renal
[10] = system: HL-60(TB) leukemia
[11] = system: HOP-92 NSCLC
[12] = system: KM12 colon
[13] = system: HCC-2998 colon
[14] = system: SNB-75 CNS
[15] = system: OVCAR-5 ovarian
[16] = system: ACHN renal
[17] = system: SF-539 CNS
[18] = system: HCT-116 colon
[19] = system: MDA-MB-231 breast
[20] = system: K-562 leukemia
[21] = system: SK-MEL-2 melanoma
[22] = system: UACC-257 melanoma
[23] = system: MOLT-4 leukemia
[24] = system: RXF 393 renal
[25] = system: OVCAR-4 ovarian
[26] = system: SNB-19 CNS
[27] = system: 786-0 renal
[28] = system: TK-10 renal
[29] = system: SK-MEL-5 melanoma
[30] = system: SR leukemia
[31] = system: NCI-H460 lung
[32] = system: NCI/ADR-RES ovarian
[33] = system: IGROV1 ovarian
[34] = system: SN12C renal
[35] = system: EKVX NSCLC
[36] = system: BT-549 breast
[37] = system: A498 renal
[38] = system: HS 578T breast
[39] = system: CAKI-1 renal
[40] = system: CCRF-CEM leukemia
[41] = system: HCT-15 colon
[42] = system: SF-295 CNS
[43] = system: NCI-H23 lung
[44] = system: MCF7 breast
[45] = system: HT29 colon
[46] = system: HOP-62 NSCLC
[47] = system: RPMI-8226 leukemia
[48] = system: SF-268 CNS
[49] = system: SK-OV-3 ovarian
[50] = system: OVCAR-3 ovarian
[51] = system: T-47D breast
[52] = system: U251 CNS
[53] = system: LOX IMVI melanoma
[54] = system: A549 NSCLC
[55] = system: OVCAR-8 ovarian
[56] = system: COLO 205 colon
[57] = system: NCI-H522 lung

Compound: c1ccc2cc(Cn3c(-c4ccc5ccccc5c4)[n+](Cc4ccc5ccccc5c4)c4ccccc43)ccc2c1
- GI50 [1]: 215 nM
- TGI [1]: 649 nM
- GI50 [2]: 399 nM
- TGI [2]: 1520 nM
- GI50 [3]: 310 nM
- TGI [3]: 1220 nM
- GI50 [4]: 277 nM
- TGI [4]: 890 nM
- GI50 [5]: 481 nM
- TGI [5]: 2460 nM
- GI50 [6]: 296 nM
- TGI [6]: 1030 nM
- GI50 [7]: 228 nM
- TGI [7]: 763 nM
- GI50 [8]: 362 nM
- TGI [8]: 1280 nM
- GI50 [9]: 781 nM
- TGI [9]: 2300 nM
- GI50 [10]: 293 nM
- TGI [10]: 944 nM
- GI50 [11]: 85.2 nM
- TGI [11]: 416 nM
- GI50 [12]: 269 nM
- TGI [12]: 869 nM
- GI50 [13]: 365 nM
- TGI [13]: 1470 nM
- GI50 [14]: 182 nM
- TGI [14]: 827 nM
- GI50 [15]: 410 nM
- TGI [15]: 1590 nM
- GI50 [16]: 752 nM
- TGI [16]: 2040 nM
- GI50 [17]: 381 nM
- TGI [17]: 1520 nM
- GI50 [18]: 193 nM
- TGI [18]: 598 nM
- GI50 [19]: 218 nM
- TGI [19]: 961 nM

Compound: Nc1ccc(Oc2ccc(C3(c4ccc(Oc5ccc(N)c(O)c5)cc4)C4CC5C6CC7CC5C3C(C7)C6C4)cc2)cc1O
- TGI [1]: > 24200 nM
- TGI [20]: 5350 nM
- TGI [2]: 3540 nM
- TGI [21]: 5640 nM
- TGI [3]: > 100000 nM
- TGI [4]: 17700 nM
- TGI [7]: 3480 nM
- TGI [22]: 14600 nM
- TGI [23]: 4990 nM
- TGI [24]: 4500 nM
- TGI [25]: 5730 nM
- TGI [8]: > 26500 nM
- TGI [9]: 8120 nM
- TGI [26]: 24200 nM
- TGI [27]: 3400 nM
- TGI [28]: > 26000 nM
- TGI [10]: > 100000 nM
- TGI [29]: > 26400 nM
- TGI [30]: > 100000 nM
- TGI [11]: 5020 nM
- TGI [31]: > 100000 nM
- TGI [32]: > 100000 nM
- TGI [12]: 3850 nM
- TGI [13]: 4960 nM
- TGI [33]: 4680 nM
- TGI [34]: 3190 nM
- TGI [15]: 5760 nM
- TGI [35]: > 24100 nM
- TGI [36]: > 31200 nM
- TGI [37]: 4730 nM
- TGI [16]: 3180 nM
- TGI [38]: > 100000 nM
- TGI [17]: > 21600 nM
- TGI [39]: 6720 nM
- TGI [40]: > 100000 nM
- TGI [41]: 10300 nM

Compound: C/C(=C\c1ccn(-c2ccc(N)cc2)n1)[C@@H]1C[C@@H]2O[C@]2(C)CCC[C@H](C)[C@H](O)[C@@H](C)C(=O)C(C)(C)[C@@H](O)CC(=O)O1
- GI50 [42]: 72.1 nM
- TGI [42]: > 50000 nM
- GI50 [1]: 125 nM
- TGI [1]: > 50000 nM
- GI50 [20]: 24.8 nM
- TGI [20]: > 50000 nM
- GI50 [2]: 31.4 nM
- TGI [2]: 577 nM
- GI50 [43]: 59.4 nM
- TGI [43]: > 50000 nM
- GI50 [21]: 75.8 nM
- TGI [21]: > 50000 nM
- GI50 [3]: 24.8 nM
- TGI [3]: > 50000 nM
- GI50 [4]: 157 nM
- TGI [4]: > 50000 nM
- GI50 [5]: > 50000 nM
- TGI [5]: > 50000 nM
- GI50 [7]: 31.3 nM
- TGI [7]: > 50000 nM
- GI50 [23]: 48.6 nM
- TGI [23]: > 50000 nM
- GI50 [24]: 47.8 nM
- TGI [24]: 406 nM
- GI50 [25]: 401 nM
- TGI [25]: > 50000 nM
- GI50 [9]: 251 nM
- TGI [9]: > 50000 nM
- GI50 [26]: 290 nM
- TGI [26]: > 50000 nM
- GI50 [27]: 174 nM
- TGI [27]: > 50000 nM
- GI50 [28]: 124 nM
- TGI [28]: > 50000 nM
- GI50 [44]: 15.2 nM
- TGI [44]: > 50000 nM
- GI50 [10]: 43.7 nM
- TGI [10]: > 50000 nM
- GI50 [45]: 18.7 nM
- TGI [45]: > 50000 nM
- GI50 [46]: 68.2 nM
- TGI [46]: > 50000 nM
- GI50 [29]: 30.8 nM
- TGI [29]: > 50000 nM
- GI50 [30]: 27 nM
- TGI [30]: > 50000 nM
- GI50 [47]: 21.4 nM
- TGI [47]: > 50000 nM
- TGI [11]: > 50000 nM
- GI50 [31]: 20.2 nM
- TGI [31]: > 50000 nM
- GI50 [32]: 106 nM
- GI50 [12]: 19.6 nM
- TGI [12]: > 50000 nM
- GI50 [13]: 38.2 nM
- TGI [13]: > 50000 nM
- GI50 [14]: 7.54 nM
- TGI [14]: 233 nM
- GI50 [33]: 494 nM
- TGI [33]: > 50000 nM
- GI50 [34]: 201 nM
- TGI [34]: > 50000 nM
- GI50 [48]: 118 nM
- TGI [48]: > 50000 nM
- GI50 [49]: 226 nM
- TGI [49]: > 50000 nM
- GI50 [15]: 107 nM
- TGI [15]: > 50000 nM
- GI50 [35]: 256 nM
- TGI [35]: > 50000 nM
- GI50 [50]: 17.5 nM
- TGI [50]: 1600 nM
- GI50 [36]: 138 nM
- TGI [36]: > 50000 nM
- GI50 [37]: 102 nM
- TGI [37]: 3660 nM
- GI50 [51]: 28 nM
- TGI [51]: > 50000 nM
- GI50 [52]: 32.1 nM
- TGI [52]: > 50000 nM
- GI50 [16]: 161 nM
- TGI [16]: > 50000 nM
- GI50 [38]: 86.3 nM
- TGI [38]: > 21600 nM
- GI50 [53]: 27.3 nM
- TGI [53]: > 50000 nM
- GI50 [54]: 34.8 nM
- TGI [54]: > 50000 nM
- GI50 [55]: 48.1 nM
- TGI [55]: > 50000 nM
- GI50 [17]: 70.2 nM
- TGI [17]: 357 nM
- GI50 [39]: 202 nM
- TGI [39]: > 50000 nM
- GI50 [18]: 18.9 nM
- TGI [18]: > 50000 nM
- GI50 [40]: 33.8 nM
- TGI [40]: > 50000 nM
- GI50 [56]: 17.5 nM
- TGI [56]: 634 nM
- GI50 [57]: 35.6 nM
- TGI [57]: 342 nM
- GI50 [41]: 29.7 nM
- TGI [41]: > 50000 nM
- GI50 [19]: 252 nM
- TGI [19]: > 50000 nM
